Legend:
S. typhimurium = experiment: Minimum inhibitory concentration in liquid culture (serial dilutions, turbidity); type: cell-based, Salmonella serovar Typhimurium ATCC 14028; conditions: S. Tiphymurium; 24 h
Procedure: (§1) To evaluate the antimicrobial capacity of the ink prepared from the NQoT dispersion, the minimum concentration that is able to inhibit the visible development of the bacterial strains S. aureus; E. coli; P. aeruginosa; S. typhimurium; E. aerogenes and L. innocua in a liquid culture medium (trypticase soy broth), after 24 h incubation, was determined. Bacterial strains were obtained from an isolated colony on a selective and differential agar plate for each genus, and were inoculated in nutritious broth for 24 h at 37° C. with stirring until obtaining a saturated culture. Then, the desired concentration of microorganisms was determined, in comparison with the standard of McFarland 0.5, and the corresponding dilutions were made in order to reach a concentration of 1×10^5 CFU/ml (colony-forming units/ml). To each culture tube, agents in serial dilutions were added, and incubated at 37° C. for 24 h; then, the lowest concentration of the mixture capable of inhibiting bacterial growth, given by absence of turbidity in the culture medium, was determined. The solutions used to generate the Nps and nanoparticles without T in their formulation (NQo) were used as controls. […]

E. coli [1] = experiment: as above; type: cell-based, Escherichia coli ATCC 25922; conditions: 24 h
Procedure: as §1

E. aerogenes = experiment: as above; type: cell-based, Enterobacter aerogenes ATCC 13048; conditions: 24 h
Procedure: as §1

L. innocua = experiment: as above; type: cell-based, Listeria innocua ATCC 33090; conditions: 24 h
Procedure: as §1

P. aeruginosa = experiment: as above; type: cell-based, Pseudomonas aeruginosa ATCC 27853; conditions: Ps. aeruginosa; 24 h
Procedure: as §1

S. aureus [2] = experiment: as above; type: cell-based, Staphylococcus aureus ATCC 25923; conditions: 24 h
Procedure: as §1

B. cinerea = experiment: Minimum inhibitory concentration against the fungus; type: cell-based, Botrytis cinerea wt
B. cinerea mycelium = experiment: Inhibition of Botrytis cinerea mycelium (radial growth on agar); type: cell-based; conditions: for Radial mycelial growth area: 6 days at 25° C., untreated 8.5 cm^2
Procedure: The antifungal activity of the NQoT dispersion was evaluated by inhibiting the radial development in the fungus mycelial plate, described by Yildirim et al., (2007). For that purpose, a portion of mycelium was sterilely taken, using a punch, from a strain previously cultivated for 5 days at 25° C., which was placed in the center of a potato dextrose agar plate mixed with dilutions of the NQoT dispersion until obtaining in the agar concentrations of 0.44 mg/ml (dispersion diluted to 10% v/v), 1.1 mg/ml (dispersion diluted to 25% v/v) and 2.2 mg/ml (dispersion diluted to 50% v/v). These plates were incubated for 6 days at 25° C., being evaluated every 24 h. The antifungal activity was determined through the mycelium propagation area of the plates containing NQoT, and were compared with agar plates containing T solutions, mixture of QoLMW-T, and the NQo dispersion in the same dilutions, and a culture of the fungus seeded in a plate without treatment, whose propagation on the surface of the plate (8.5 cm2) is equivalent to a 100% development, which was used as a parameter of growth comparison.
On the other hand, the antifungal capacity of the NQoTs confronted to the vegetative form of Botrytis cinerea was tested, wherein the growth inhibition of this fungus' mycelium was assessed, adding diluted concentrations to the culture medium of the NQoT dispersion. The dilutions tested corresponded to 10%, 25% and 50% v/v, and were compared to T's solutions, QoLMW-T mixture, and NQo dispersion in the same dilutions.
It was observed, when the culture medium lacked the solutions or dispersions to be tested (viability control), that the fungus spread over the surface of the plate (8.5 cm^2), equivalent to 100% growth, which was used as a growth comparison parameter.

S. aureus [3] = conditions: Guarda et al., 2011; cited from earlier work
Listeria innocua = conditions: Guarda et al., 2011; cited from earlier work
E. coli [4] = conditions: Guarda et al., 2011; cited from earlier work
A. niger = conditions: Guarda et al., 2011; cited from earlier work
S. cereviciae = conditions: Guarda et al., 2011; cited from earlier work
[5] = agent diluted to 10% v/v in culture medium
[6] = agent diluted to 25% v/v in culture medium

Structure (SMILES): Cc1ccc(C(C)C)c(O)c1 [thymol]
- Minimum inhibitory concentration (S. typhimurium): 0.250 gL^−1
- Minimum inhibitory concentration (E. coli [1]): 0.250 gL^−1
- Minimum inhibitory concentration (E. aerogenes): 0.250 gL^−1
- Minimum inhibitory concentration (L. innocua): 0.275 gL^−1
- Minimum inhibitory concentration (P. aeruginosa): 0.225 gL^−1
- Minimum inhibitory concentration (S. aureus [2]): 0.275 gL^−1
- Minimum inhibitory concentration (B. cinerea): 0.550 gL^−1
- Inhibition of mycelial growth versus viability control (B. cinerea mycelium; [5]): 4.7%
- Radial mycelial growth area (B. cinerea mycelium; [5]): 8.1±0.1 cm^2
- Inhibition of mycelial growth versus viability control (B. cinerea mycelium; [6]): 20%
- Radial mycelial growth area (B. cinerea mycelium; [6]): 6.8±0.8 cm^2
- Minimum inhibitory concentration (MIC) (S. aureus [3]): 250 ppm
- Minimum inhibitory concentration (MIC) (Listeria innocua): 250 ppm
- Minimum inhibitory concentration (MIC) (E. coli [4]): 250 ppm
- Minimum inhibitory concentration (MIC) (A. niger): 250 ppm
- Minimum inhibitory concentration (MIC) (S. cereviciae): 125 ppm
